Here are results for 17 compounds from patent US8394786B2, “Quinazoline derivatives” (Janssen Pharmaceutica N.V., priority 2003, dated 2013).

Each structure is given as a SMILES string.

One experiment relates to SKOV3 cells. As to the kind of experiment: Serum starved proliferation assay on the ovarian carcinoma SKOV3 cells (C3). It counts as cell-based. The following applies: Homo sapiens, SK-OV-3, 72 h, EGF stimulated (100 ng/ml, 72 hours, serum free) or 72 hours with compounds; MTT cell viability assay; read-out: SKOV3 cell (C3): pIC50 (converted). As for the experimental part: The ovarian carcinoma cell line (SKOV3) was used in an epidermal growth factor stimulated cell proliferation assay, to assess the inhibitory effect of the compounds on EGF in whole cells.
In a first step the SKOV3 cells were incubated for 24 hours in the presence of 10% FCS serum. In the second step the cells were incubated with the compounds to be tested in a serum free condition (37° C. and 5% (v/v) CO2) and subsequently stimulated for 72 hours with EGF at a final concentration of 100 ng/ml. The effect of the compounds on the EGF stimulation was finally assessed in a standard MTT cell viability assay.
Alternatively, the SKOV3 cells were incubated for 24 hours in the presence of 10% FCS serum. In the second step the cells were incubated for 72 hours with the compounds to be tested and the effect of the compounds on cell proliferation was finally assessed in a standard MTT cell viability assay.
On the technique in general: Tetrazolium dyes change colour on reduction, which living cells bring about.

The next experiment deals with EGFR (Homo sapiens, UniProt P00533). As to the kind of experiment: In vitro inhibition of EGFR, Flash Plate or glass-fiber filter technology (C2). It is filed as biochemical. The arrangement: 0.5 μg EGFR-kinase domain/well. Conditions: EGFR-kinase domain, 5.0 μM unlabeled ATP, read-out: Kinase activity.(C2): pIC50 (converted). As for the experimental part:
The in vitro inhibition of EGFR was assessed using either the Flash Plate technology or the glass-fiber filter technology as described by Davies, S. P. et al., Biochem J. (2000), 351; p. 95-105. The Flash Plate technology is generally described by B. A. Brown et al. in High Throughput Screening (1997), p. 317-328. Editor(s): Devlin, John P. Publisher: Dekker, New York, N.Y.
In the Flash Plate EGFR kinase reaction assay, a kinase substrate consisting of biotinylated poly(L-glutamic acid-L-tyrosine) (poly(GT)biotin), is incubated with the aforementioned protein in the presence of (^33P) radiolabeled ATP. (^33P) phosphorylation of the substrate is subsequently measured as light energy emitted using a streptavidin-coated Flash Plate (PerkinElmer Life Sciences) by trapping and quantifying the binding of the biotin tagged and radiolabeled substrate.
The EGFR kinase reaction is performed at 30° C. for 60 minutes in a 96-well microtiter FlashPlate (PerkinElmer Life Sciences). For each of the tested compounds a full dose response 1·10^−6M to 1·10^−10M has been performed. IRESSA° and Tarceva™ (erlotinib) were used as reference compounds. The 100 μl reaction volume contains 54.5 mM TrisHCl pH 8.0, 10 mM MgCl2, 100 μM Na3VO4, 5.0 μM unlabeled ATP, 1 mM DTT, 0.009% BSA, 0.8 μCi AT^33P, 0.35 μg/well poly(GT)biotin and 0.5 μg EGFR-kinase domain/well.
The reaction is stopped by aspirating the reaction mixture and washing the plate 3× with 200 μl wash/stop buffer (PBS+100 mM EDTA). After the final wash step 200 μl of wash/stop buffer was added to each well and the amount of phosphorylated (^33P) Poly(GT)biotin determined by counting (30 sec/well) in a microtiterplate scintillation counter.
In the glass-fiber filter technology EGFR kinase reaction assay, a kinase substrate consisting of poly(L-glutamic acid-L-tyrosine) (poly(GT)), is incubated with the aforementioned protein in the presence of (^33P) radiolabeled ATP. (^33P) Phosporylation of the substrate is subsequently measured as radioactivity bound on a glassfiber-filter.
The EGFR kinase reaction is performed at 25° C. for 10 minutes in a 96-well microtiterplate. For each of the tested compounds a full dose response 1·10^−6M to 1·10^−10M has been performed. IRESSA° and Tarceva™ (erlotinib) were used as reference compounds. The 25 μl reaction volume contains 60 mM TrisHCl pH 7.5, 3 mM MgCl2, 3 mM Mn Cl2, 3 μM Na3VO4, 50 μg/ml PEG20000, 5.0 μM unlabeled ATP, 1 mM DTT, 0.1 μCi AT^33P, 62.5 ng/well poly(GT) and 0.5 μg EGFR-kinase domain/well.
The reaction is stopped by adding 5 μl of a 3% phosphoric acid solution. 10 μl of the reaction mixture is then spotted onto a Filtermat A filter (Wallac) and washed 3 times for 5 min. in 75 mM phosphoric acid and 1 time for 5 min. in methanol prior to drying and quantification on the Typhoon (Amersham) using a LE phosphorage storage screen.

Sequence of EGFR (P00533 712-979 limits assumed): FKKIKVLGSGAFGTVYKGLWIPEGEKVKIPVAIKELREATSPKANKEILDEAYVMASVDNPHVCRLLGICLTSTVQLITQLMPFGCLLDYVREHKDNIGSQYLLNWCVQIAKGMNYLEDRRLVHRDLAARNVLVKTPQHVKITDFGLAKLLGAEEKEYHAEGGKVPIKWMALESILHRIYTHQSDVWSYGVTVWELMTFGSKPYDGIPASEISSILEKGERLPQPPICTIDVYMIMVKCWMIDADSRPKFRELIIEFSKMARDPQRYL

For the compound `COCCCNCC(=O)N1CCOc2cc3c(ncnc3cc2OC)Nc2cc(Cl)ccc2CCCNC(=O)C1` [Compound 49, 4,6-ethanediylidenepyrimido[4,5-b][6,1,9,12]benzoxatriazacycloheptadecin-12(13H)-one, 19-chloro-8,9,10,11,14,15,16,21-octahydro-22-methoxy-10-[[(3-methoxypropyl)amino]acetyl]-], the IC50 with SKOV3 cells was 794 nM; on EGFR, 398 nM.

Consider `COc1cc2ncnc3c2cc1OCCN(C(=O)CN1CCOCC1)CC(=O)NCCCc1ccc(Cl)cc1N3` [Compound 50, 4,6-ethanediylidenepyrimido[4,5-b][6,1,9,12]benzoxatriazacycloheptadecin-12(13H)-one, 19-chloro-8,9,10,11,14,15,16,21-octahydro-22-methoxy-10-(4-morpholinylacetyl)-], for which the results for the IC50 with SKOV3 cells and at EGFR were 158 nM and 79.4 nM, respectively.

With `COc1cc2ncnc3c2cc1OCCN(C)CC(=O)NCCCc1ccc(Cl)cc1N3` [Compound 52, 4,6-ethanediylidenepyrimido[4,5-b][6,1,9,12]benzoxatriazacycloheptadecin-12(13H)-one, 19-chloro-8,9,10,11,14,15,16,21-octahydro-22-methoxy-10-methyl-], the IC50 was 100 nM with SKOV3 cells and 79.4 nM on EGFR.

Take `CCN1CCOc2cc3c(ncnc3cc2OC)Nc2cc(Cl)ccc2CCCNC(=O)C1` [Compound 53, 4,6-ethanediylidenepyrimido[4,5-b][6,1,9,12]benzoxatriazacycloheptadecin-12(13H)-one, 19-chloro-10-ethyl-8,9,10,11,14,15,16,21-octahydro-22-methoxy-]: the figures for the IC50 in the experiment on SKOV3 cells and at EGFR were 501 nM and 200 nM, respectively.

`COc1cc2ncnc3c2cc1OCC1CCCN1CC(=O)NCCCc1ccc(Cl)cc1N3` (stereo not shown) [Compound 54, 1,22-ethanediylidene-5H,17H-pyrimido[4,5-b]pyrrolo[2,1-h][6,1,9,12]benzoxatriazacycloheptadecin-14(15H)-one, 7-chloro-10,11,12,13,18,19,19a,20-octahydro-24-methoxy-]: the IC50 in the experiment with SKOV3 cells is 1260 nM; at EGFR it was 126 nM.

Consider `COc1cc2ncnc3c2cc1OCCCNCC(=O)NCCCc1ccc(Cl)cc1N3` [Compound 55, 4,6-ethanediylidene-8H-pyrimido[4,5-b][6,1,10,13]benzoxatriazacyclooctadecin-13(14H)-one, 20-chloro-9,10,11,12,15,16,17,22-octahydro-23-methoxy-], for which the IC50 is 200 nM with SKOV3 cells and 501 nM at EGFR.

`COc1cc2ncnc3c2cc1OCC1CCCN(CC(=O)NCCCc2ccc(Cl)cc2N3)C1` (stereo not shown) [Compound 56, 14H-4,6-ethanediylidene-9,13-methano-8H-pyrimido[4,5-b][6,1,12,15]benzoxatriazacycloeicosin-15(16H)-one, 22-chloro-9,10,11,12,17,18,19,24-octahydro-26-methoxy-]: the IC50 is 10000 nM in the experiment with SKOV3 cells and 1580 nM at EGFR.

Turning to `COc1cc2ncnc3c2cc1OCC1CCN(CC1)CC(=O)NCCCc1ccc(Cl)cc1N3` [Compound 57, 13H-4,6-ethanediylidene-9,12-ethanopyrimido[4,5-b][6,1,11,14]benzoxatriazacyclononadecin-14(15H)-one, 21-chloro-8,9,10,11,16,17,18,23-octahydro-26-methoxy-], the results for the IC50 with SKOV3 cells and at EGFR were 398 nM and 6310 nM, respectively.

Take `COc1cc2ncnc3c2cc1OCCC1CCN(CC1)CC(=O)NCCCc1ccc(Cl)cc1N3` [Compound 58, 14H-4,6-ethanediylidene-10,13-ethano-8H-pyrimido[4,5-b][6,1,12,15]benzoxatriazacycloeicosin-15(16H)-one, 22-chloro-9,10,11,12,17,18,19,24-octahydro-27-methoxy-]: the IC50 with SKOV3 cells and on EGFR was 2000 nM throughout.

On to `COc1cc2ncnc3c2cc1OCCCNC(=O)CNC(=O)Cc1ccc(Cl)cc1N3` [Compound 60, 4,6-ethanediylidenepyrimido[4,5-b][6,1,10,13]benzoxatriazacycloheptadecine-12,15-dione, 19-chloro-8,9,10,11,13,14,16,21-octahydro-22-methoxy-], for which the IC50 in the experiment on SKOV3 cells is 2 nM; at EGFR it was 15.8 nM.

As for `COc1cc2ncnc3c2cc1OCCCCCNCc1cc(F)c(Br)cc1N3` [Compound 61, 4,6-ethenopyrimido[4,5-b][6,1,12]benzoxadiazacyclopentadecine, 17-bromo-16-fluoro-8,9,10,11,12,13,14,19-octahydro-20-methoxy-], the values for the IC50 with SKOV3 cells and at EGFR were 398 nM and 15.8 nM, respectively.

Take `COc1cc2ncnc3c2cc1OCCN(CCN1CCOCC1)C(=O)CNC(=O)Cc1ccc(Cl)cc1N3` [Compound 62, 4,6-ethanediylidene-8H-pyrimido[4,5-b][6,1,9,12]benzoxatriazacyclohexadecine-11,14-dione, 18-chloro-9,10,12,13,15,20-hexahydro-21-methoxy-10-[2-(4-morpholinyl)ethyl]-]: the IC50 is 5010 nM in the experiment with SKOV3 cells and 398 nM on EGFR.

As to `COCCN1CCOc2cc3c(ncnc3cc2OC)Nc2cc(Cl)ccc2CC(=O)NCC1=O` [Compound 63, 4,6-ethanediylidene-8H-pyrimido[4,5-b][6,1,9,12]benzoxatriazacyclohexadecine-11,14-dione, 18-chloro-9,10,12,13,15,20-hexahydro-21-methoxy-10-(2-methoxyethyl)-], the IC50 in the experiment with SKOV3 cells was 2000 nM; at EGFR it was 126 nM.

Take `COc1cc2ncnc3c2cc1OCCCCCCOc1cc(NC(=O)c2ccc(F)cc2)ccc1N3` [Compound 64, benzamide, 4-fluoro-N-(8,9,10,11,12,13-hexahydro-20-methoxy-4,6-ethanediylidene-19H-pyrimido[4,5-b][6,13,1]benzodioxaazacyclopentadecin-16-yl)-]: the IC50 in the experiment on SKOV3 cells was 398 nM; at EGFR, 1000 nM.

Turning to `COc1cc2ncnc3c2cc1OCCNC(=O)C(CC(C)C)NC(=O)Cc1ccc(Cl)cc1N3` (stereo not shown) [Compound 67, 4,6-ethanediylidene-8H-pyrimido[4,5-b][6,1,9,12]benzoxatriazacyclohexadecine-11,14-dione, 18-chloro-9,10,12,13,15,20-hexahydro-21-methoxy-12-(2-methylpropyl)-], the IC50 with SKOV3 cells is 501 nM; on EGFR it was 100 nM.

In the case of `COc1cc2ncnc3c2cc1OCCCNC(=O)C(CC(C)C)NC(=O)Cc1ccc(Cl)cc1N3` (stereo not shown) [Compound 68, 4,6-ethanediylidenepyrimido[4,5-b][6,1,10,13]benzoxatriazacycloheptadecine-12,15-dione, 19-chloro-8,9,10,11,13,14,16,21-octahydro-22-methoxy-13-(2-methylpropyl)-], the values for the IC50 in the experiment on SKOV3 cells and on EGFR were 6.31 nM and 12.6 nM, respectively.

For the compound `COc1cc2ncnc3c2cc1OCCCCNC(=O)CNCc1ccc(Cl)cc1N3` [Compound 101, 4,6-ethanediylidenepyrimido[4,5-b][6,1,11,14]benzoxatriazacycloheptadecin-13(8H)-one, 19-chloro-9,10,11,12,14,15,16,21-octahydro-22-methoxy-], the IC50 was 31.6 nM with SKOV3 cells and 251 nM on EGFR.
